Usually IC50 stands for the concentration that inhibits the measured activity by half. A high value points to weaker potency.

Experiment [1] concerns Guinea-pig Blood Platelet. As to the kind of experiment: Guinea-pig Blood Platelet Aggregation Inhibition Test (oral administration, aggregation measured in PRP). Type of experiment: in vivo, guinea-pig (male Hartley strain). The following applies: 50 μg/kg. The source says:
The effects of the present invention are illustrated in more detail by the following experiments. Experiment 1 [Guinea-pig Blood Platelet Aggregation Inhibition Test]
194, page 927 (1962)]. […] [formula]
In the table are recited data of the compound obtained by converting the triple bond between the 13- and 14-positions of Compound 9 of Example 23 into a double bond as a comparative compound (limaprost) [Tsuboi et al, Arch. Intern. Pharmacodyn. Ther., vol. 247, page 89 (1980)].

The nature of experiment [2]: Blood Pressure Lowering Test in Anesthetized Dogs. The settings on record: intravenous. Type of experiment: in vivo, dog (male mongrel). The protocol: Male mongrel dogs, weighing 13 kg, were anesthetized by intravenous administration of 30 mg/kg of sodium pentobarbital. A cannula inserted into the left femoral […] was attached to a blood pressure transducer to measure blood pressure. A solution of the test drug in ethanol, if necessary, was diluted with ethanol. 10 μl of the solution was administered through the vein via a cannula inserted into the left anterior limb vein. The blood pressure lowering rate by the test drug was calculated by the following formula: [formula]

A further experiment has as its system Rabbit Blood Platelet. The experiment is described as follows: Rabbit Blood Platelet Aggregation Inhibition Test. It is filed as cell-based, rabbit (New Zealand white strain). The settings on record: Oryctolagus cuniculus, rabbit PRP, ADP 5 μM, 37° C., mean value. The procedure: Groups of four New Zealand white strain rabbits, each weighing 2.5 to 4.0 kg, were used for the test. […] The collected blood was Centrifuged at 1100 rpm for 15 minutes to give platelet rich plasma (PRP) as a supernatant. […] 194, page 927 (1962)]. That is, 1 μl of the test drug dissolved in ethanol at the desired concentration was added to 275 μl of PRP, and the mixture was stirred at 1000 rpm at 37° C.
The aggregation inhibition rate was calculated on the basis of the aggregation obtained by using ethanol in place of the test drug solution, and the aggregation inhibition activity was expressed as IC50 value which was determined from the dose response curve.
Results are shown in Table 2 wherein the compound number is as defined in the examples described hereinafter, and the IC50 value is expressed as the mean value.

For `CCCC[C@H](C)C[C@H](O)C#C[C@H]1[C@H](O)CC(=O)[C@@H]1CCCC/C=C/C(=O)OC` [Compound 1, (2E,17S)-17,20-Dimethyl-2,3,13,14-tetradehydro-PGE1 Methyl Ester], in experiment [1] (ADP 3 μM), the “Aggregation Inhibition Rate, ADP Aggregation, 2 hours after administration” value is given as 9.8%. Besides, the “Aggregation Inhibition Rate, Collagen Aggregation, 2 hours after administration” value in experiment [1] (collagen 3 μg/ml) was determined as 25.7%. The “blood pressure lowering rate” value in experiment [2] (0.03 μg/kg) came to 10.1%.
Take `CCC#CCC(C)[C@H](O)C#C[C@H]1[C@H](O)CC(=O)[C@@H]1CCCC/C=C/C(=O)OC` (stereo partly drawn) [Compound 2, (2E,16RS)-16,20-Dimethyl-2,3,13,14,18,18,19,19-octadehydro-PGE1 Methyl Ester]: in the experiment with Rabbit Blood Platelet, the IC50 amounted to 1.7 nM.
Take `COC(=O)/C=C/CCCC[C@H]1C(=O)C[C@@H](O)[C@@H]1C#C[C@@H](O)C1CCCCC1` [Compound 3, (2E)-16,17,18,19,20-Pentanor-15-cyclohexyl-2,3,13,14-tetradehydro-PGE1Methyl Ester]: the IC50 in the experiment on Rabbit Blood Platelet is 6 nM. The “blood pressure lowering rate” value in experiment [2] (0.03 μg/kg) is 11.5%.
Consider `CCCC[C@H](C)C[C@H](O)C#C[C@H]1[C@H](O)CC(=O)[C@@H]1CCCCC#CC(=O)OC` [Compound 4, (71S)-17,20-Dimethyl-2,2,3,3,13,14-hexadehydro-PGE1 Methyl Ester], for which half-maximal inhibition in the experiment with Rabbit Blood Platelet (IC50) was put at 3 nM.
The compound `CCCC[C@@H](C)C[C@H](O)C#C[C@H]1[C@H](O)CC(=O)[C@@H]1CCCC/C=C/C(=O)OC` [Compound 5, (2E,17R)-17,20-Dimethyl-2,3,13,14-tetradehydro-PGE1 Methyl Ester] gave an IC50 in the experiment on Rabbit Blood Platelet of 1.4 nM. In addition, the “Aggregation Inhibition Rate, ADP Aggregation, 2 hours after administration” value in experiment [1] (ADP 3 μM) is reported as 25.9%. Further, the “Aggregation Inhibition Rate, Collagen Aggregation, 2 hours after administration” value in experiment [1] (collagen 3 μg/ml) came to 1.6%.
For the compound `CCCCOC(=O)C#CCCCC[C@H]1C(=O)C[C@@H](O)[C@@H]1C#C[C@@H](O)C[C@@H](C)CCCC` [Compound 6, (17S)-17,20-Dimethyl-2,2,3,3,13,14-hexadehydro-PGE1 n-butyl Ester], in experiment [1] (ADP 3 μM), the “Aggregation Inhibition Rate, ADP Aggregation, 2 hours after administration” value came out at 22.8%. For the same compound, the “Aggregation Inhibition Rate, Collagen Aggregation, 2 hours after administration” value in experiment [1] (collagen 3 μg/ml) came to 58.2%.
Compound `COC(=O)C#CCCCC[C@H]1C(=O)C[C@@H](O)[C@@H]1C#C[C@@H](O)CC(C)CCC=C(C)C` (stereo partly drawn) [Compound 7, (17RS)-20-Nor-17-methyl-19-(2'-methylprop-1'-enyl)-2,2,3,3,13,14-hexadehydro-PGE1 Methyl Ester] gave an IC50 with Rabbit Blood Platelet of 1.1 nM.
Same read-out and setting: next, `CCCC[C@@H](C)C[C@H](O)C#C[C@H]1[C@H](O)CC(=O)[C@@H]1CCCCC#CC(=O)OC` [Compound 8, (17R)-17,20-Dimethyl-2,2,3,3,13,14-hexadehydro-PGE1 Methyl Ester]: 0.74 nM.
The compound `CCCC[C@H](C)C[C@H](O)C#C[C@H]1[C@H](O)CC(=O)[C@@H]1CCCC/C=C/C(=O)O` [Compound 9, (2E,17S)-17,20-Dimethyl-2,3,13,14-tetradehydro-PGE1] yielded an IC50 in the experiment on Rabbit Blood Platelet of 2.6 nM. In experiment [1] (ADP 3 μM), the “Aggregation Inhibition Rate, ADP Aggregation, 2 hours after administration” value is reported as 26.4%. For the same compound, the “Aggregation Inhibition Rate, Collagen Aggregation, 2 hours after administration” value in experiment [1] (collagen 3 μg/ml) came out at 28.4%. In addition, the “blood pressure lowering rate” value in experiment [2] (0.03 μg/kg) is 23.7%.
In the experiment on Rabbit Blood Platelet, `CCC#CCC(C)[C@H](O)C#C[C@H]1[C@H](O)CC(=O)[C@@H]1CCCC/C=C/C(=O)O` (stereo partly drawn) [Compound 10, (2E,16RS)-16,20-Dimethyl-2,3,13,14,18,18,19,19-octadehydro-PGE1] yielded an IC50 of 1.1 nM.
For the compound `O=C(O)/C=C/CCCC[C@H]1C(=O)C[C@@H](O)[C@@H]1C#C[C@@H](O)C1CCCCC1` [Compound 11, (2E)-16,17,18,19,20-Pentanor-15-cyclohexyl-2,3,13,14-tetradehydro-PGE1], in the experiment with Rabbit Blood Platelet, the IC50 is 6.3 nM.
The same measure, in the same setting: under `CCCC[C@H](C)C[C@H](O)C#C[C@H]1[C@H](O)CC(=O)[C@@H]1CCCCC#CC(=O)O` [Compound 12, (17S)-17,20-Dimethyl-2,2,3,3,13,14-hexadehydro-PGE1] stands 5.1 nM.
On the same count and under the same terms, under `CCCCCC(C)C[C@H](O)C#C[C@H]1[C@H](O)CC(=O)[C@@H]1CCCC/C=C/C(=O)O` (stereo partly drawn) [Compound 13, (2E,17RS)-17-Methyl-20-ethyl-2,3,13,14-tetradehydro-PGE1] stands 2.7 nM.
On to `CCCC[C@@H](C)C[C@H](O)C#C[C@H]1[C@H](O)CC(=O)[C@@H]1CCCC/C=C/C(=O)O` [Compound 14, (2E,17R)-17,20-Dimethyl-2,3,13,14-tetradehydro-PGE1], for which the IC50 in the experiment on Rabbit Blood Platelet is 1.3 nM. Moreover, the “Aggregation Inhibition Rate, ADP Aggregation, 2 hours after administration” value in experiment [1] (ADP 3 μM) was 52.5%. In addition, the “Aggregation Inhibition Rate, Collagen Aggregation, 2 hours after administration” value in experiment [1] (collagen 3 μg/ml) is listed as 100.0%. Further, in experiment [1] (8 hours after administration, ADP 3 μM), the “Aggregation Inhibition Rate, ADP Aggregation, 8 hours after administration” value stood at 31.8%. Further, the “Aggregation Inhibition Rate, Collagen Aggregation, 8 hours after administration” value in experiment [1] (8 hours after administration, collagen 3 μg/ml) is given as 61.0%.
As to `CCCC[C@H](C)C[C@H](O)C#C[C@H]1[C@H](O)CC(=O)[C@@H]1CCCCCC/C=C/C(=O)O` [Compound 15, (2E,17S)-2a,2b-Dihomo-17,20-dimethyl-2,2a,13,14-tetradehydro-PGE1], in the experiment with Rabbit Blood Platelet, the IC50 is 5.1 nM.
Turning to `CCCC[C@@H](C)C[C@H](O)C#C[C@H]1[C@H](O)CC(=O)[C@@H]1CCCCC#CC(=O)O` [Compound 16, (17R)-17,20-Dimethyl-2,2,3,3,13,14-hexadehydro-PGE1], the IC50 with Rabbit Blood Platelet came to 0.37 nM.
On to `CCCCC[C@H](O)/C=C/[C@H]1[C@H](O)CC(=O)[C@@H]1CCCCCCC(=O)O` [PGE1], for which the IC50 in the experiment on Rabbit Blood Platelet is 26 nM. Further, the “blood pressure lowering rate” value is on record as 13.9% in experiment [2] (1 μg/kg) and 23.7% in experiment [2] (3 μg/kg).
`CCCC[C@H](C)C[C@H](O)/C=C/[C@H]1[C@H](O)CC(=O)[C@@H]1CCCC/C=C/C(=O)O` [limaprost, reference compound] registered an IC50 in the experiment on Rabbit Blood Platelet of 6.3 nM. Besides, the “Aggregation Inhibition Rate, ADP Aggregation, 2 hours after administration” value in experiment [1] (ADP 3 μM) was 3.4%. In addition, in experiment [1] (collagen 3 μg/ml), the “Aggregation Inhibition Rate, Collagen Aggregation, 2 hours after administration” value worked out at 16.2%. Also, the “blood pressure lowering rate” value in experiment [2] (0.5 μg/kg) came out at 13.9%; in experiment [2] (1 μg/kg), 23.8%.

Values taken from patent publication US5639899A, “Prostaglandin E1 analogues” (Taisho Pharmaceutical Co., Ltd., priority 1991, dated 1997).
